Measured values published in patent US20260060993A1, “COMPOSITION FOR IMPROVEMENT OF INTESTINAL FLORA” (MEIJI CO., LTD., priority 2022, published 2026).
Entries after “also recorded” stand apart in the source; their conditions may differ.

How the values were obtained:
Bifidobacterium bacteria = test: Human fecal culture system, relative abundance by 16S V3-V4 amplicon sequencing (Test Example 1); assay type: cell-based; conditions: 1% substance; for Change in relative abundance of Bifidobacterium bacteria: feces of two healthy adults, 2 days at 37° C., anaerobic, pH 6.5, versus control without substance
Experimental: (§1) Each substance to be evaluated was added at a concentration of 1% to a diluted fecal solution in which feces of healthy adult origin were suspended in the GAM Semisolid without Dextrose “Nissui” (Nissui Pharmaceutical Co., Ltd.) for GAM glycolysis from which agar was removed by filtration. Fecal materials of two individuals were each tested without mixing them. The medium used for the test was allowed to stand in an anaerobic glove box at least overnight before use. For the culture, a microbioreactor BioLector Pro […]-Labs) and a plate with microfluidic channels were used, and the culture was performed for 2 days at 37° C. and 600 rpm in an anaerobic environment while maintaining a constant pH of 6.5 with 1.5 N HCl and sodium hydroxide during the culture. The prebiotic abilities of the added substances were evaluated by comparing the bacterial flora obtained after the culture with that obtained under the control condition in which the substances to be evaluated were not added. DNA was extracted and purified from the diluted fecal solutions after the culture by using Maxwell RSC PureFood GMO & Authentication Kit (Promega), and amplicon sequencing of the V3-V4 region was performed by using MiSeq (Illumina). The resulting fastq files were analyzed with QIIME2 (https://quime2.org/) to calculate the relative abundance of each intestinal bacterium.

Parabacteroides bacteria [1] = test: as above; assay type: cell-based; conditions: 1% substance, feces of two healthy adults, 2 days at 37° C., anaerobic, pH 6.5, versus control without substance
Experimental: as §1

bifidobacteria = conditions: known from Non-patent documents 7 and 8; cited from earlier work
Parabacteroides bacteria [2] = test: Human fecal culture, 60 subjects, genus-level analysis (Test Example 3); assay type: cell-based; conditions: 0.25% substance, n=60 fecal samples, 1 day at 37° C., anaerobic, versus distilled water; Wilcoxon's signed rank test, p=3.59×10^−8
Experimental: Galactosylkojibiose (trisaccharide fraction) was added at a concentration of 0.25% to a diluted fecal solution in which feces of healthy adult origin were suspended in the GAM Semisolid without Dextrose “Nissui” (Nissui Pharmaceutical Co., Ltd.) from which agar was removed by filtration (n=60). The galactosylkojibiose (trisaccharide fraction) was the fractionated and purified product containing 4′-galactosylkojibiose as the main ingredient prepared in Production Example 2. The fecal samples for 60 subjects were aliquoted under refrigerated conditions immediately after excretion and frozen at −80° C. until use. The test was performed for each of the fecal samples without mixing them. The medium used for the test was allowed to stand in an anaerobic glove box at least overnight before use. For the culture, a 96-well deepwell plate was used, and the culture was performed for 1 day at 37° C. in an anaerobic environment. The prebiotic ability of the added evaluation substance was evaluated by comparing the bacterial flora observed after the culture with that obtained under the control condition in which distilled water was added instead of the evaluation substance. […] The resulting fastq files were analyzed with QIIME2 (https://qiime2.org/) to calculate the relative abundance of each intestinal bacterium.

[3] = system: Parabacteroides distasonis; test: Human fecal culture, 60 subjects, species-level analysis (Test Example 3); assay type: cell-based; conditions: 0.25% substance, n=60 fecal samples, 1 day at 37° C., anaerobic, versus distilled water; Wilcoxon's signed rank order test, p=2.07×10^−8
Experimental: Galactosylkojibiose (trisaccharide fraction) was added at a concentration of 0.25% to a diluted fecal solution in which feces of healthy adult origin were suspended in the GAM Semisolid without Dextrose “Nissui” (Nissui Pharmaceutical Co., Ltd.) from which agar was removed by filtration (n=60). The galactosylkojibiose (trisaccharide fraction) was the fractionated and purified product containing 4'-galactosylkojibiose as the main ingredient prepared in Production Example 2. The fecal samples for 60 subjects were aliquoted under refrigerated conditions immediately after excretion and frozen at -80° C. until use. The test was performed for each of the fecal samples without mixing them. The medium used for the test was allowed to stand in an anaerobic glove box at least overnight before use. […] The prebiotic ability of the added evaluation substance was evaluated by comparing the bacterial flora observed after the culture with that obtained under the control condition in which distilled water was added instead of the evaluation substance. […] The resulting fastq files were analyzed with QIIME2 (https://qiime2.org/) to calculate the relative abundance of each intestinal bacterium. […] The resulting fastq files were analyzed with QIIME2 (https://qiime2.org/), and confirmed that it was classified as that of […] at the bacterial species level. […]

lactase = target: T1, lactase (Kluyveromyces lactis, UniProt P00723); test: Lactase treatment of the trisaccharide fraction, LCMS analysis; assay type: biochemical; conditions: 10% in phosphate-citrate buffer pH 6.5, 0.1% lactase (GODO-YNL), 40° C.
T1 construct: purchased Godo Shusei Co., Ltd. GODO-YNL
Experimental: The purified trisaccharide fraction was lyophilized and dissolved in a phosphate-citrate buffer, pH 6.5 at a concentration of 10%. Then, 0.1% of lactase (product name GODO-YNL, Godo Shusei Co., Ltd.) was added to the solution, and the enzymatic reaction was allowed at 40° C.

T1 sequence (P00723 whole entry): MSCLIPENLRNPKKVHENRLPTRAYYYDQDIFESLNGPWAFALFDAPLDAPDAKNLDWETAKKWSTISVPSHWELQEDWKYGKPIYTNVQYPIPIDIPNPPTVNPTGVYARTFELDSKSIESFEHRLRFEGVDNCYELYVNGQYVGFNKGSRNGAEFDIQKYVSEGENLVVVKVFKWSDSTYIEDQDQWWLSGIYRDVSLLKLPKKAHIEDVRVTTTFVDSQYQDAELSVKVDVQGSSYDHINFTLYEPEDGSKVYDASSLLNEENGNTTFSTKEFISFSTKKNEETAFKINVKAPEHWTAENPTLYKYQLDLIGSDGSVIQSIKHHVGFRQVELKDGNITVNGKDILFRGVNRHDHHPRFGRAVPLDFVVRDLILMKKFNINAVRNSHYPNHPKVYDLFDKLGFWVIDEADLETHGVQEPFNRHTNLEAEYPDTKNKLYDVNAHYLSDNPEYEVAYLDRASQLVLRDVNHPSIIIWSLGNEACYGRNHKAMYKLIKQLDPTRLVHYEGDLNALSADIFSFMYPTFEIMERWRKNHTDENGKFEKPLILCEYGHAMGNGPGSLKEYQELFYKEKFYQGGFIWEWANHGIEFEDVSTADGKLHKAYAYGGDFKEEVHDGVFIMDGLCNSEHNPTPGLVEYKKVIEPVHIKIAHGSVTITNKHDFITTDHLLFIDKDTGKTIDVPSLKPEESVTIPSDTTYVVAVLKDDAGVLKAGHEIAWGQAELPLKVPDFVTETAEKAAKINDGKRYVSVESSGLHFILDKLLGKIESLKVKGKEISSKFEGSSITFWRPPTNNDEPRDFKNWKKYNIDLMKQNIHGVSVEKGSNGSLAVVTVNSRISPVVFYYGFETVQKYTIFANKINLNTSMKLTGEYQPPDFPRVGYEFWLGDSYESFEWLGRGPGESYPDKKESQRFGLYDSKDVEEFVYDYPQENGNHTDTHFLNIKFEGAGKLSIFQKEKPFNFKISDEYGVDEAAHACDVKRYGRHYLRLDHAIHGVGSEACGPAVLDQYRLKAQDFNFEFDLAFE

| Compound | Change in relative abundance of Bifidobacterium bacteria (Bifidobacterium bacteria) | Change in relative abundance of Parabacteroides bacteria (Parabacteroides bacteria [1]) | Effect on growth of bifidobacteria (bifidobacteria) | Increase of relative abundance of Bifidobacterium bacteria compared with kojibiose (Bifidobacterium bacteria; all samples of the two subjects, comparison with kojibiose) | Change in relative abundance of Parabacteroides bacteria (genus level) (Parabacteroides bacteria [2]) | Change in relative abundance of species indicated as “Parabacteroides_” (judged Parabacteroides distasonis) [3] | Product formed by lactase treatment (lactase) |
| --- | --- | --- | --- | --- | --- | --- | --- |
| OCC1OC(O)C(O[C@H]2OC(CO)[C@@H](O)[C@H](O)C2O)[C@@H](O)[C@@H]1O (stereo partly drawn) [kojibiose] | increased | increase | growth-promoting effect |  |  |  |  |
| OCC1O[C@H](OC2C(O)[C@H](O[C@@H]3OC(CO)[C@H](O)C(O)C3O)C(CO)O[C@H]2O)C(O)C(O)[C@@H]1O (stereo partly drawn) [α-D-Glcp-(1→2)-[β-D-Galp-(1→4)-]D-Glcp] | increased | increase |  | more significantly increased | significant increase | significant increase; also recorded: significantly increased | formation of kojibiose |
